pIC50: −log10 of the molar value.
Tests used:
Assay type in all cases: cell-based
[1] = system: HCT-116 human colorectal carcinoma cells; test: Alamar Blue cell proliferation assay, HCT-116; conditions: 96 h, anti-proliferative effect, about four days with compound, HCT-116 cells, read-out: AB: HCT-116
Protocol: (§1) A representative cell-proliferation assay protocol using Alamar Blue dye (stored at 4° C., use 20 ul per well) is described hereafter.
(§2) a. Split and trypsinize cells.
(§3) b. Count cells using hemocytometer.
(§4) c. Plate 4,000-5,000 cells per well in 100 μl of medium and seed into a 96-well plate according to the following plate layout. Add cell culture medium only to wells B10 to B12. Wells B1 to B9 have cells but no compound added.
(§5) d. Add 100 μl of 2× drug dilution to each well in a concentration shown in the plate layout above. At the same time, add 100 μl of media into the control wells (wells B10 to B12). Total volume is 200 μl /well.
(§6) e. Incubate four (4) days at 37° C., 5% CO2 in a humidified incubator.
(§7) f. Add 20 μl Alamar Blue reagent to each well.
(§8) g. Incubate for four (4) hours at 37° C., 5% CO2 in a humidified incubator.
(§9) h. Record fluorescence at an excitation wavelength of 544 nm and emission wavelength of 590 nm using a microplate reader.
(§10) In the assays, cells are cultured with a test compound for approximately four days, the dye then is added to the cells and fluorescence of […] dye is detected after approximately four hours. Different types of cells can be utilized in the assays (e.g., HCT-116 human colorectal carcinoma cells, PC-3 human prostatic cancer cells and MiaPaca human pancreatic carcinoma cells). Anti-proliferative effects of representative compounds are provided in the Table below (i.e., “AB: HCT-116” and “AB: MiaPaCa” columns).

[2] = system: rRNA synthesis from 45S rDNA; test: QPCR assay of rRNA synthesis; conditions: IC50 pertaining to rRNA synthesis, PCR with 5' ETS probe
Protocol: A representative assay for determining whether a compound modulates rRNA production is set forth hereafter. Assays were conducted to determine the effects of compounds on rRNA synthesis from 45S rDNA. Synthesized rRNA was quantified by a polymerase chain reaction (PCR) assay. A primer/probe set was designed using Primer Express software and synthesized by Applied Biosystems. The 5′ ETS Probe utilized had the following sequence (at its 3′ end): 6FAM-TTG ATC CTG CCA GTA GC-MGBNFQ. The primer sequences were as follows:
(§11) Step 1. Reverse transcription of RNA to DNA
(§12) Fluorescence of digested label was detected and quantified. The effect of the compounds on rRNA synthesis were assessed in the assay, and provided in the table hereafter are IC50 values of selected compounds pertaining to rRNA synthesis and cMYC RNA synthesis.

[3] = system: C-myc transcription (cMYC RNA synthesis); test: QPCR control assay of C-myc transcription; conditions: IC50 pertaining to cMYC RNA synthesis
Protocol: A control assay that detected effects of the compounds on C-myc transcription also was conducted using a primer/probe set purchased from ABI (TaqMan Gene Expression Assay with assay ID: Hs99999003_m1). The following assay protocol was utilized:
as §11, §12

[4] = system: MiaPaca human pancreatic carcinoma cells; test: Alamar Blue cell proliferation assay, MiaPaCa; conditions: MIA PaCa-2, 96 h, anti-proliferative effect, about four days with compound, read-out: AB: MiaPaCa
Protocol: as §1, §2, §3, §4, §5, §6, §7, §8, §9, §10

SMILES	pIC50 [1]	pIC50 [2]	pIC50 [3]	pIC50 [4]
CN1CCN(NC(=O)c2c(=O)c3cc(F)c(NN4CCN(C)CC4)nc3n3c2sc2ccccc23)CC1 [Cmpd 5]	5.76	6.20		6.31
O=C(NN1CCOCC1)c1c(=O)c2ccc(N3CCOCC3)nc2n2c1sc1ccccc12 [Cmpd 6]	6.25	6.15		6.26
O=C(NN1CCCC1)c1c(=O)c2ccc(N3CCOCC3)nc2n2c1sc1ccccc12 [Cmpd 7]	6.19	6.15		6.02
O=C(NN1CCCCC1)c1c(=O)c2ccc(N3CCOCC3)nc2n2c1sc1ccccc12 [Cmpd 8]	≤ 4.30	6.34	4.63	≤ 4.30
COC[C@H]1CCCN1NC(=O)c1c(=O)c2ccc(N3CCOCC3)nc2n2c1sc1ccccc12 [Cmpd 9]	5.93	6.14		6.22
CN1CCN(NC(=O)c2c(=O)c3ccc(N4CCCCC4)nc3n3c2sc2ccccc23)CC1 [Cmpd 11]	6.04	5.50		6.13
CN1CCN(NC(=O)c2c(=O)c3ccc(NCCF)nc3n3c2sc2ccccc23)CC1 [Cmpd 12]	6.16	5.80		5.99
CN1CCN(NC(=O)c2c(=O)c3ccc(N4CCC(O)C4)nc3n3c2sc2ccccc23)CC1 (stereo not drawn) [Cmpd 13]	5.23	5.14		5.48
O=C(NN1CCOCC1)c1c(=O)c2cc(F)c(N3CCOCC3)nc2n2c1sc1ccccc12 [Cmpd 14]	6.16	5.65		5.09
O=C(NNc1ccccn1)c1c(=O)c2cc(F)c(N3CCOCC3)nc2n2c1sc1ccccc12 [Cmpd 15]	5.88	5.26		5.27
COc1ccc(CNc2ccc3c(=O)c(C(=O)NN4CCN(C)CC4)c4sc5ccccc5n4c3n2)cc1 [Cmpd 18]	6.01	5.89		6.05
CN1CCN(NC(=O)c2c(=O)c3ccc(-c4ccc(CO)cc4)nc3n3c2sc2ccccc23)CC1 [Cmpd 20]	5.15	5.01		≤ 4.30
Cn1c2ccccc2n2c3nc(N4CCOCC4)c(F)cc3c(=O)c(C(=O)NN3CCOCC3)c12 [Cmpd 21]	6.18			5.89
CN(C)NC(=O)c1c(=O)c2cc(F)c(N3CCOCC3)nc2n2c3ccccc3n(C)c12 [Cmpd 22]	5.85			5.66
CN(C)NC(=O)c1c(=O)c2ccc(N3CCOCC3)nc2n2c1[nH]c1ccccc12 [Cmpd 23]	5.78			
CN1CCN(NC(=O)c2c(=O)c3ccc(N4CCOCC4)nc3n3c2[nH]c2ccccc23)CC1 [Cmpd 24]	5.85			

Compounds with a higher pIC50 [1], results first:

pIC50 [1]	pIC50 [2]	pIC50 [3]	pIC50 [4]	SMILES
7.02	6.83	5.92		CN1CCN(NC(=O)c2c(=O)c3ccc(N4CCOCC4)nc3n3c2sc2ccccc23)CC1 [Cmpd 1]
6.60	6.16		5.83	CN1CCN(NC(=O)c2c(=O)c3ccc(N(C)Cc4cnccn4)nc3n3c2sc2ccccc23)CC1 [Cmpd 2]
6.58	6.99	5.22	6.65	CN1CCN(NC(=O)c2c(=O)c3cc(F)c(N4CCOCC4)nc3n3c2sc2ccccc23)CC1 [Cmpd 3]
6.29	6.54	5.15	6.76	CN1CCN(NC(=O)c2c(=O)c3cc(F)c(N(C)Cc4cnccn4)nc3n3c2sc2ccccc23)CC1 [Cmpd 4]
6.28	6.38	5.05	6.35	CN(C)NC(=O)c1c(=O)c2ccc(N3CCOCC3)nc2n2c1sc1ccccc12 [Cmpd 10]
6.53	6.46	4.85	6.15	O=C(Nn1cnnc1)c1c(=O)c2cc(F)c(N3CCOCC3)nc2n2c1sc1ccccc12 [Cmpd 16]
9.00	7.42	5.96	8.52	O=C(NNC1=NCCN1)c1c(=O)c2cc(F)c(N3CCOCC3)nc2n2c1sc1ccccc12 [Cmpd 17]

From patent US20110065687A1, “HYDRAZIDE COMPOUNDS AND USES THEREOF” (priority 2007, published 2011)
